Results taken from patent US5994365A, “Substituted diazaanthracene compounds having pharmaceutical utility” (Diazans Limited, priority 1998, dated 1999).

What was measured:
[1] = Precipitation of the dimer on dilution with Mueller-Hinton broth; assay type: physicochemical; details: resuspended upon mixing
Method: (§1) The dimer product of Example 15 was obtained in powder form. A stock solution of 1280 mg/L of the dimer in dimethylsulfoxide (DMSO) was prepared and stored at room temperature in a foil-wrapped screw-capped tube (10 ml). Subsequent dilutions were prepared using cation-adjusted Mueller-Hinton broth (50 mg/L Mg). […] It was resuspended upon mixing each time an aliquot was taken from the solution.

ATCC EC 25922 = assay: Broth microdilution (NCCLS guidelines), MIC; assay type: cell-based, Escherichia coli; details: Table A
Method: as §1
(§2) Approximately 100 varied bacterial isolates were initially collected for screening, along with 9 ATCC organisms. Forty additional strains of Staphylococcus species were subsequently screened. All isolates were identified according to generally accepted lab protocol.
(§3) Broth microdilution was performed according to NCCLS guidelines. Microdilution panels were prepared using doubling dilutions of the dimer in ~250 μl plastic, 96-well trays. Inoculum suspension equal to a 0.5 McFarland standard were further diluted and added to the microdilution trays to achieve a final inoculum of 5×10^5 CFU/ml (5×10^4 CFU/well). Colony counts were performed to confirm the final inoculum, as well as its purity. Each strain was also tested in a growth control well containing only MHB for viability.
Microdilution trays were incubated at 35° C. in ambient air or 5% CO2 as appropriate for 16-20 hours. […]

P. aeruginosa = assay: Broth microdilution (NCCLS guidelines), MIC; assay type: cell-based, Pseudomonas aeruginosa; details: Table A
Method: as §1, §2, §3
(§4) Microdilution trays were incubated at 35° C. in ambient air or 5% CO2 as appropriate for 16-20 hours. After incubation, the minimal inhibitory concentration (MIC) was defined as the lowest concentration of the dimer with no evidence of growth. Since 10 or more strains of most organisms were tested; a range of MICs was determined for each organism, as well as the concentration of the dimer that inhibited 50% of the strains (MIC50) and the concentration of the dimer that inhibited 90% of the strains (MIC90).

[2] = test system: Coagulase negative Staph (Staneg); assay: Broth microdilution (NCCLS guidelines), MIC; assay type: cell-based, Coagulase negative staphylococci; details: for MIC50 / MIC90 / Range of MICs: 10 strains
Method: as §1, §2, §3, §4

β strep grp A = assay: Broth microdilution (NCCLS guidelines), MIC; assay type: cell-based; details: Table A
Method: as §1, §2, §3, §4
(§5) **5% lysed horse blood in MHB (cation supplemented)

Strep pneumoniae = assay: Broth microdilution (NCCLS guidelines), MIC; assay type: cell-based; details: Table A
Method: as §1, §2, §3, §4, §5

S. aureus ATCC 25923 = assay: Microbroth dilution assay of antimicrobial susceptibility (MIC); assay type: cell-based, Staphylococcus aureus; details: microdilution, CAMHB, 37° C., 18 hrs
Method: It is described below, using E. coli ATCC® 25922, S. aureus ATCC® 25923, and P. aeruginosa ATCC® 27853. Prepare 0.0128 g DAA in 10 mL dH2 O (or 95% EtOH, methanol or DMSO if H2 O insoluble)=1280 μg/mL (stock solution). Dilute DAA stock solution 1:10 with CAMHB (Cation-Adjusted Mueller Hinton Broth): 0.5 mL DAA stock solution+4.5 mL CAMHB=128 μg/mL (DAA working solution). Pipette 100 μl of sterile CAMHB per well into columns 2-12 of rows A-G using Eppendorf repeater pipette. Pipette 100 μl per well of sterile-filtered DAA working solution into columns 1 and 2 of rows A, C, E, G using Jensen electric pipette. Mix and transfer 100 μl from column 2 to 3 of rows A, C, E, G using Jensen pipette. Repeat to column 12 then discard 100 μl from column 12. Rows B, D and F are positive growth control lanes for each organism and contain only CAMHB and the organism--no DAA. Row H is the media additive control lane, if necessary (e.g. MeOH, EtOH, DMSO etc.). The concentration of the media additive is obtained by doing a 1:10 dilution of the additive with CAMHB (0.5 mL additive+4.5 mL CAMHB). Row G is considered to be "negative growth control" and is loaded with only CAMHB and the DAA. Inoculate 0.5 mL TSB (Trypticase Soy Broth) tubes with 3 single colonies each of E. coli, S. aureus, and P. Aeruginosa from TSA plates using sterile needle. Incubate @ 37° C. for 4-6 hr. Measure out 100 mL CAMHB using the sterile 100 mL volumetric flask. Pour the excess into a sterile reagent reservoir. Pipette 0.5 mL and discard, leaving 99.5 mL in each of the 3-Erlenmeyer flasks. Set aside. Use the excess CAMHB for the 1:10 dilution of inoculum: 0.5 mL inoculum+4.5 mL CAMHB. Perform a 1:200 dilution of inoculum: 0.5 mL of 1:10 diluted inoculum+99.5 mL CAMHB from previous step. Pipette 100 μl (using Eppendorf repeater pipette) E. coli into each well in columns 1-12 of rows A and B and columns 1-4 of row H (if media additive control lane necessary). Pipette 100 μl P. aeruginosa into each well in columns 1-12 of rows C and D and columns 5-8 of row H (if media additive control lane is necessary). Pipette 100 μl S. aureus into each well in columns 1-12 of rows E and F and columns 9-12 of row H (if media additive control lane is necessary). Incubate microtiter plates @ 37° C. for 18 hrs. The lowest concentration of antimicrobial agent that results in significant inhibition of visible growth represents the MIC (Minimal Inhibitory Concentration).

[3] = 10 strains, 5% lysed horse blood in MHB

Substance: 10,10'-bis(3,6-dimethyl-5,10-dihydro-1,8-diazaanthracen-5-one) and 5,5'-bis(3,6-dimethyl-5,10-dihydro-1,8-diazaanthracen-10-one) [Example 15]
- precipitation ([1]; at 128 mg/L in MHB): Some precipitation occurred at 128 mg/L
- precipitation upon dilution with MH broth ([1]; from 1280 mg/L DMSO stock, after sitting for short periods): some precipitation upon dilution with MH broth
- MIC (ATCC EC 25922): > 64 µg/mL
- MIC50 (P. aeruginosa; 10 strains): > 64 µg/mL
- MIC90 (P. aeruginosa; 10 strains): > 64 µg/mL
- Range of MICs (P. aeruginosa; 10 strains): ≥ 64 mg/L
- MIC (P. aeruginosa; ATCC PA 27853 (×2)): > 64 µg/mL
- MIC50 ([2]; Table A): 0.125 µg/mL
- MIC90 ([2]; Table A): 0.5 µg/mL
- Range of MICs ([2]; Table A): .0625 to 1.0 mg/L
- MIC50 ([2]; Table C, solution 14 days old): 1 µg/mL
- MIC90 ([2]; Table C, solution 14 days old): 2 µg/mL
- MIC ([2]; Table D, Staneg 1): 2 µg/mL
- MIC ([2]; Table D, Staneg 2): 0.25 µg/mL
- MIC ([2]; Table D, Staneg 3): 2 µg/mL
- MIC ([2]; Table D, Staneg 4): > 16 µg/mL
- MIC ([2]; Table D, Staneg 5): 1 µg/mL
- MIC ([2]; Table D, Staneg 6): 1 µg/mL
- MIC ([2]; Table D, Staneg 7): 1 µg/mL
- MIC ([2]; Table D, Staneg 8): 1 µg/mL
- MIC50 ([2]; Table E, fresh solution): 0.25 µg/mL
- MIC90 ([2]; Table E, fresh solution): 0.5 µg/mL
- Range of MICs ([2]; Table E, fresh solution, in µg/mL): 0.0625-4
- MIC ([2]; Table F, Staneg 1): 0.0625 µg/mL
- MIC ([2]; Table F, Staneg 4): 4 µg/mL
- MIC ([2]; Table F, Staneg 7): 0.25 µg/mL
- MIC50 ([2]; Table G): 0.25 µg/mL
- MIC90 ([2]; Table G): .5 µg/mL
- Range of MICs ([2]; Table G): 0.0625 to 4 mg/L
- MIC50 (β strep grp A; [3]): 32 µg/mL
- MIC90 (β strep grp A; [3]): 64 µg/mL
- Range of MICs (β strep grp A; [3]): 32 to 64 mg/L
- MIC (β strep grp A; ATCC STRA 19615, 5% lysed horse blood in MHB): 32 µg/mL
- MIC50 (Strep pneumoniae; [3]): 8 µg/mL
- MIC90 (Strep pneumoniae; [3]): 16 µg/mL
- Range of MICs (Strep pneumoniae; [3]): 8 to 32 mg/L
- MIC (Strep pneumoniae; ATCC STRPNE 49619, 5% lysed horse blood in MHB): 2.0 µg/mL
- MIC (S. aureus ATCC 25923): 0.0625 µg/mL
